Reference: patent US7112586B2, “Substituted diamine derivatives useful as motilin antagonists” (Ortho-McNeil Pharmaceutical, Inc., priority 2000, dated 2006)

Tests used:
Motilin Receptor = target: T1, Motilin Receptor (Oryctolagus cuniculus, UniProt G1T803); test: Motilin receptor binding, rabbit colon membranes, 125I porcine motilin; set-up: Rabbit Colon % Inh / inhibition / % Inh (Rabbit colon): dose or concentration left out as unconfirmed; details: rabbit colon membranes; for inhibition: read-out: Rabbit Colon % Inh; for IC50: read-out: Rabbit Colon IC50
T1 construct: The muscle tissue was homogenized in 10 volumes of 50 mM Tris-Cl; from tissue; host or cells: rabbit colon smooth muscle, crude membrane homogenate
T1 sequence (G1T803 1-400): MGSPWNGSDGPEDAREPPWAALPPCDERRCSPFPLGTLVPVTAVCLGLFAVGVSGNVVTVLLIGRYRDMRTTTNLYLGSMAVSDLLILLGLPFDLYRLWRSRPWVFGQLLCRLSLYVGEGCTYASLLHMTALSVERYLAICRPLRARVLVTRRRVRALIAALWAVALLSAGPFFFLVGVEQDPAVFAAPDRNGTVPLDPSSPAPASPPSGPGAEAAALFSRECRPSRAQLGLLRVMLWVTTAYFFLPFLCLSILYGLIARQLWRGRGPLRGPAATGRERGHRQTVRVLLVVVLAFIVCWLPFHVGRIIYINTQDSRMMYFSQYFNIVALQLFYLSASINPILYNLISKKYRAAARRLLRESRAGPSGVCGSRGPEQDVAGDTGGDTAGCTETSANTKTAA

[1] = tested on: motilin induced contraction; test: Rabbit tissue bath procedure: inhibition of motilin induced contraction of duodenum segments; set-up: species or system New Zealand White rabbit; details: 3 nM porcine motilin induced contraction, read-out: Tissues IC50
Protocol: Rabbit Tissue Bath Procedure
One New Zealand White rabbit (Covance) of either sex was euthanized with an IV injection of Sleepaway. The duodenum was quickly excised, the lumen rinsed with saline to clean, and the tissue placed in cold, aerated (95% O2–5% CO2) Tyrodes buffer (NaCl 136.9 mM, KCl 2.7 mM, CaCl2 1.8 mM, MgCl2 1.04 mM, NaH2PO4 0.42 mM, NaHCO3 11.9 mM, Glucose 5.55 mM, pH 7.4). The duodenum, being kept moist at all times, was cleaned of any excess mesenteric tissue, and then cut into 3 cm segments starting at the proximal end. Sixteen tissue segments were usually prepared from each duodenum. These segments were tied on both ends with 3-0 silk suture (Ethicon). One end of the tissue was attached to an S-hook on a custom made glass support rod (Crown Glass Co., Somerville) and the rod plus tissue were placed in a 15 ml isolated tissue bath (Radnoti). The other end of the glass rod was attached to a Grass Force Displacement Transducer FT03. The tissue was maintained in room temperature Tyrodes buffer pH 7.4 and continually gassed with 95% O2— 5% CO2. The tissues were adjusted to 1.0 g resting tension and maintained at that tension throughout the equilibration period. An Ml2 Tissue Bath Computer was used to record and analyze data.
The tissues were washed twice during a 30 minute equilibration period and readjusted to 1 g resting tension as necessary. After equilibration the tissues were challenged with 3 μM Carbachol (Carbamoylcholine Chloride-Sigma). After maximal contraction was attained, the tissues were washed 3 times with Tyrodes. The tissues were allowed a 20 minute resting/equilibration period, during which time they were washed once and readjusted to 1 g resting tension. The tissues were challenged a second time with 3 μM Carbachol, and this contraction was considered as maximal, or 100% contraction. The tissues were washed 3 times, equilibrated for 10 minutes, washed again and readjusted to 1 g resting tension. Vehicle or test compound in 30% DMSO-50 mM HEPES was added directly to the bath and the tissues were incubated for 20 minutes. Test compounds and vehicle were run in duplicate.
The percent inhibition by test compound of the motilin induced contraction was calculated by first determining the ratio of the vehicle contractions with Motilin compared to the Carbachol contractions. This Tissue Adjustment Factor (TAF) was used to determine the value for the potential uninhibited contraction with Motilin for each tissue. The percent inhibition was then determined by dividing the actual Motilin contraction in treated tissues by the potential uninhibited contraction and subtracting this number from 1. IC50 values were determined by graphing results with Kaleidograph graphing program.

Row | SMILES | inhibition (Motilin Receptor) [%] | IC50 (Motilin Receptor) [nM] | IC50 [1] [nM] | Rabbit Colon % Inh (Motilin Receptor) [%]
1 | CCN(CC)CCOc1ccc(N(Cc2ccc(F)cc2)C(=O)CCCC(=O)N(CCc2ccccc2)Cc2ccccc2)cc1 [compound 195] |  |  |  | 62
2 | O=C(CCCC(=O)N(Cc1ccc(F)cc1)c1cccc(OCCN2CCCC2)c1)N(CCc1ccccc1)Cc1cccc(C(F)(F)F)c1 [compound 200] | 92 | 41 |  | 
3 | O=C(CCCC(=O)N(Cc1ccc(F)cc1)c1cccc(OCCN2CCOCC2)c1)N(CCc1ccccc1)Cc1cccc([N+](=O)[O-])c1 [compound 205] | 76 | 100 |  | 
4 | COc1cccc(CN(Cc2cccc(Cl)c2)C(=O)CCCC(=O)N(Cc2ccc(F)cc2)c2cccc(OCCN3CCOCC3)c2)c1 [compound 206] | 60 | 770 |  | 
5 | Cc1ccc(OCCN2CCCC2)cc1N(Cc1ccc(F)cc1)C(=O)CCCC(=O)N(CCc1ccccc1)Cc1ccccc1 [compound 207] | 87 | 64 |  | 
6 | Cc1c(OCCN2CCCC2)cccc1N(Cc1ccc(F)cc1)C(=O)CCCC(=O)N(CCc1ccccc1)Cc1cccc(C(=O)O)c1 [compound 215] | 100 | 84 |  | 
7 | Cc1c(OCCN2CCOCC2)cccc1N(Cc1ccc(F)cc1)C(=O)CCCC(=O)N(CCc1ccccc1)Cc1ccccc1 [compound 234] | 86 | 218 |  | 
8 | CC(C)(C)c1ccc2c(c1)C(=O)N(C1CCCC(CN(C(=O)c3ccc(F)cc3)c3cccc(OCCN4CCOCC4)c3)C1)C2=O (centres unmarked) [compound 250] |  |  |  | 0
9 | O=C(c1ccc(F)cc1)N(CC1CCCC(N2C(=O)c3ccc(F)cc3C2=O)C1)c1cccc(OCCN2CCOCC2)c1 (centres unmarked) [compound 251] |  |  |  | 0
10 | O=C(c1ccc(F)cc1)N(CC1CCCC(N2C(=O)c3ccc4ccccc4c3C2=O)C1)c1cccc(OCCN2CCOCC2)c1 (centres unmarked) [compound 252] |  |  |  | 15
11 | Cc1ccc2c(c1)C(=O)N(C1CCCC(CN(C(=O)c3ccc(F)cc3)c3cccc(OCCN4CCOCC4)c3)C1)C2=O (centres unmarked) [compound 253] |  |  |  | 30
12 | O=C(c1ccc(F)cc1)N(CC1CCCC(N2C(=O)CC3(CCCC3)CC2=O)C1)c1cccc(OCCN2CCOCC2)c1 (centres unmarked) [compound 254] |  |  |  | 25
13 | O=C(c1ccc(F)cc1)N(CC1CCCC(N2C(=O)c3cc(Cl)c(Cl)cc3C2=O)C1)c1cccc(OCCN2CCOCC2)c1 (centres unmarked) [compound 255] |  |  |  | 22
14 | Cc1ccc2c(c1)C(=O)N(C1CCCC(CN(C(=O)c3ccc(F)cc3)c3cccc(OCCN4CCOCC4)c3)C1)C2=O (centres unmarked) [compound 256] |  |  |  | 27
15 | O=C(c1ccc(F)cc1)N(CC1CCCC(N2C(=O)c3ccccc3C2=O)C1)c1cccc(OCCN2CCOCC2)c1 (centres unmarked) [compound 257] |  |  |  | 0
16 | CC1(C)CC(=O)N(C2CCCC(CN(C(=O)c3ccc(F)cc3)c3cccc(OCCN4CCOCC4)c3)C2)C(=O)C1 (centres unmarked) [compound 258] |  |  |  | 34
17 | O=C(c1ccc(F)cc1)N(CC1CCCC(N2C(=O)c3ccc(Br)cc3C2=O)C1)c1cccc(OCCN2CCOCC2)c1 (centres unmarked) [compound 259] |  |  |  | 17
18 | CC(=O)Oc1ccc2c(c1)C(=O)N(C1CCCC(CN(C(=O)c3ccc(F)cc3)c3cccc(OCCN4CCOCC4)c3)C1)C2=O (centres unmarked) [compound 260] |  |  |  | 30
19 | O=C(c1ccc(F)cc1)N(CC1CCCC(N2C(=O)c3ccc4ccc(F)cc4c3C2=O)C1)c1cccc(OCCN2CCOCC2)c1 (centres unmarked) [compound 261] |  |  |  | 0
20 | O=C(c1ccc(F)cc1)N(CC1CCCC(N2C(=O)C3CC3C2=O)C1)c1cccc(OCCN2CCOCC2)c1 (centres unmarked) [compound 262] |  |  |  | 18
21 | O=C(c1ccc(F)cc1)N(CC1CCCC(N2C(=O)c3c(Cl)ccc(Cl)c3C2=O)C1)c1cccc(OCCN2CCOCC2)c1 (centres unmarked) [compound 263] |  |  |  | 11

Further lines, results first:

Row | inhibition (Motilin Receptor) [%] | IC50 (Motilin Receptor) [nM] | IC50 [1] [nM] | Rabbit Colon % Inh (Motilin Receptor) [%] | SMILES
22 | 80 | 35 | 27 |  | O=C(Nc1ccccc1)N(CC1CCCC(N(Cc2cccc([N+](=O)[O-])c2)C(=O)C(Cl)(Cl)Cl)C1)c1cccc(OCCN2CCOCC2)c1 (centres unmarked) [compound 65]
23 | 95 | 490 | > 300 |  | O=C(c1ccc(F)cc1)N(CC1CCCC(N(Cc2ccccn2)C(=O)C(Cl)(Cl)Cl)C1)c1cccc(OCCN2CCOCC2)c1 (centres unmarked) [compound 90]
24 | 100 | 90 | 20.5 |  | O=C(c1ccc(F)cc1)N(CC1CCCC(N(Cc2cccc([N+](=O)[O-])c2)C(=O)C(Cl)(Cl)Cl)C1)c1cccc(OCCN2CCOCC2)c1 (centres unmarked) [compound 93]
25 | 100 | 107 |  |  | COc1cccc(CN(Cc2cccc(Cl)c2)C(=O)CCCC(=O)N(Cc2ccc(F)cc2)c2cccc(OCCN3CCCC3)c2)c1 [compound 198]
26 | 91 | 100 |  |  | O=C(CCCC(=O)N(Cc1ccc(F)cc1)c1cccc(OCCN2CCCC2)c1)N(CCc1ccccc1)Cc1cc(Cl)cc(Cl)c1 [compound 199]
27 | 98 | 240 |  |  | O=C(CCCC(=O)N(Cc1ccc(F)cc1)c1cccc(OCCN2CCCC2)c1)N(CCN1CCCC1)Cc1cccc(Cl)c1 [compound 203]
28 | 100 | 14 |  |  | O=C(c1ccc(F)cc1)N(CC1CCCC(N(Cc2cccc([N+](=O)[O-])c2)C(=O)C(Cl)(Cl)Cl)C1)c1cccc(OCCN2CCCC2)c1 (centres unmarked) [compound 211]
29 | 89 | 58 |  |  | O=C(c1ccc(F)cc1)N(CC1CCCC(N(Cc2cccc(Cl)c2)C(=O)C(Cl)(Cl)Cl)C1)c1cccc(OCCN2CCCC2)c1 (centres unmarked) [compound 212]
30 |  |  | 24 |  | CC(C)(C)C(=O)N(Cc1ccccc1)[C@@H]1CCC[C@H](CN(C(=O)c2ccc(F)cc2)c2cccc(OCCN3CCCC3)c2)C1 [compound 214]
31 | 100 | 41 |  |  | O=C(Nc1ccccc1)N(CC1CCCC(N(Cc2cccc(Cl)c2)C(=O)C(Cl)(Cl)Cl)C1)c1cccc(OCCN2CCCC2)c1 (centres unmarked) [compound 223]
32 | 98 | 39 |  |  | O=C(Nc1ccccc1)N(CC1CCCC(N(Cc2ccccc2)C(=O)C(Cl)(Cl)Cl)C1)c1cccc(OCCN2CCCC2)c1 (centres unmarked) [compound 224]
33 | 93 | 21 |  |  | CC(C)(C)C(=O)N(Cc1ccccc1)[C@@H]1CCC[C@H](CN(C(=O)Nc2ccccc2)c2cccc(OCCN3CCCC3)c2)C1 [compound 225]
34 | 89 | 170 |  |  | CCN(CC)CCOc1cccc(N(CC2CCCC(N(Cc3cccc(Cl)c3)C(=O)C(C)(C)C)C2)C(=O)c2ccc(F)cc2)c1 (centres unmarked) [compound 233]
35 | 96 | 168 |  |  | CC(C)(C)C(=O)N(Cc1cccc(Cl)c1)C1CCCC(CN(C(=O)c2ccc(F)cc2)c2cccc(OCCN3CCCCC3)c2)C1 (centres unmarked) [compound 237]
36 | 98 | 97 |  |  | O=C(c1ccc(F)cc1)N(CC1CCCC(N(Cc2cccc(Cl)c2)C(=O)C(Cl)(Cl)Cl)C1)c1cccc(OCCN2CCCCC2)c1 (centres unmarked) [compound 238]
37 |  |  |  | 14 | COc1cccc(CC(=O)N(Cc2cccc(Cl)c2)C2CCCC(CN(C(=O)c3ccc(F)cc3)c3cccc(OCCN4CCOCC4)c3)C2)c1 (centres unmarked) [compound 241]
38 |  |  |  | 36 | O=C(c1ccc(F)cc1)N(CC1CCCC(N(Cc2cccc(Cl)c2)C(=O)CCC2CCCC2)C1)c1cccc(OCCN2CCOCC2)c1 (centres unmarked) [compound 242]
39 |  |  |  | 35 | COc1ccc(CC(=O)N(Cc2cccc(Cl)c2)C2CCCC(CN(C(=O)c3ccc(F)cc3)c3cccc(OCCN4CCOCC4)c3)C2)cc1 (centres unmarked) [compound 243]
40 |  |  |  | 42 | O=C(c1ccc(F)cc1)N(CC1CCCC(N(Cc2cccc(Cl)c2)C(=O)Cc2ccccc2)C1)c1cccc(OCCN2CCOCC2)c1 (centres unmarked) [compound 244]
41 |  |  |  | 40 | COc1ccc(CC(=O)N(Cc2cccc(Cl)c2)C2CCCC(CN(C(=O)c3ccc(F)cc3)c3cccc(OCCN4CCOCC4)c3)C2)cc1OC (centres unmarked) [compound 245]
42 |  |  |  | 73 | CC(C)(C)CC(=O)N(Cc1cccc(Cl)c1)C1CCCC(CN(C(=O)c2ccc(F)cc2)c2cccc(OCCN3CCOCC3)c2)C1 (centres unmarked) [compound 246]
43 | 86 | 760 |  |  | O=C(c1ccc(F)cc1)N(CC1CCCC(N(Cc2cccc(Cl)c2)C(=O)Cc2cccs2)C1)c1cccc(OCCN2CCOCC2)c1 (centres unmarked) [compound 248]
44 |  |  |  | 22 | O=C(c1ccc(F)cc1)N(CC1CCCC(N(Cc2cccc(Cl)c2)C(=O)Cc2ccc(F)cc2)C1)c1cccc(OCCN2CCOCC2)c1 (centres unmarked) [compound 249]
